Drawing on US20240174603A1 (Rappta Therapeutics Oy, priority 2021, published 2024), this text covers GI50 for 39 molecules.

For this experiment, the system named is LNCaP cells. As to the kind of experiment: LNCaP cell viability assay (MTS). Type of experiment: cell-based. The conditions noted are these: Homo sapiens, LNCaP, 48 h, LNCaP cell line. An outline of the steps: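 LNCaP cells (5000/well) treated 24 h after plating with compound at 1–80 µM for 48 h. Relative cell number read by MTS; GI50 from four-parameter variable-slope log(inhibitor) fit with bottom constrained to zero.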

Broadly, the GI50 is the concentration at which growth is held to half of that of the control. Lower therefore signals greater sensitivity of the cells. For `COC(=O)C[C@H](NS(=O)(=O)c1ccc(OC(F)(F)F)cc1)c1cc(Cl)cc(Cl)c1` [Compound 39, Methyl (S)-3-(3,5-dichlorophenyl)-3-((4-(trifluoromethoxy)phenyl)sulfonamido)propanoate], halving of growth (GI50) required 35.3 µM.

`COC(=O)[C@H](Cc1ccc(Cl)c(Cl)c1)NS(=O)(=O)c1ccc(OC(F)(F)F)cc1` [Compound 40, Methyl (S)-3-(3,4-dichlorophenyl)-2-((4-(trifluoromethoxy)phenyl)sulfonamido)propanoate] came in with a GI50 of 57.2 µM. With `O=S(=O)(NC(c1cccc(Cl)c1)C1CCCC1)c1ccc(OC(F)(F)F)cc1` (stereo not drawn) [Compound 41, N-((3-chlorophenyl)(cyclopentyl)methyl)-4-(trifluoromethoxy)benzenesulfonamide], the GI50 turned out to be 37.3 µM. To `CCOC(=O)C(Cc1cc(Cl)sc1Cl)NS(=O)(=O)c1ccc(OC(F)(F)F)cc1` (stereo not drawn) [Compound 42, Ethyl 3-(2,5-dichlorothiophen-3-yl)-2-((4-(trifluoromethoxy)phenyl)sulfonamido)propanoate] belongs 57.8 µM. `CCOC(=O)[C@@H](Cc1ccc(OC)cc1)NS(=O)(=O)c1ccc(OC(F)(F)F)cc1` [Compound 43, Ethyl (R)-3-(4-methoxyphenyl)-2-((4-(trifluoromethoxy)phenyl)sulfonamido)propanoate]: the GI50 was determined as 72 µM.

The molecule `O=S(=O)(NC(Cc1cccc(Br)c1)CC(F)(F)F)c1ccc(OC(F)(F)F)cc1` (stereo not drawn) [Compound 44, N-(1-(3-bromophenyl)-4,4,4-trifluorobutan-2-yl)-4-(trifluoromethoxy)benzenesulfonamide] yielded a GI50 of 59 µM. As to `CCOC(=O)C(Cc1ccccc1Cl)NS(=O)(=O)c1ccc(OC(F)(F)F)cc1` (stereo not drawn) [Compound 45, Ethyl 3-(2-chlorophenyl)-2-((4-(trifluoromethoxy)phenyl)sulfonamido)propanoate], the concentration for 50% growth inhibition (GI50) came out at 46 µM. `CCOC(=O)CC(NS(=O)(=O)c1ccc(OC(F)(F)F)cc1)c1cccc(Br)c1` (stereo not drawn) [Compound 46, Ethyl 3-(3-bromophenyl)-3-((4-(trifluoromethoxy)phenyl)sulfonamido)propanoate]: it took 49 µM to inhibit growth by half (GI50). `CCOC(=O)C(CC(C)CC)NS(=O)(=O)c1ccc(OC(F)(F)F)cc1` (stereo not drawn) [Compound 47, Ethyl 4-methyl-2-((4-(trifluoromethoxy)phenyl)sulfonamido)hexanoate] returned a GI50 of 70 µM. For `CN(Cc1ccccc1Br)C(=O)CCNS(=O)(=O)c1ccc(OC(F)(F)F)cc1` [Compound 48, N-(2-bromobenzyl)-N-methyl-3-((4-(trifluoromethoxy)phenyl)sulfonamido)propenamide] the value was 43 µM. For the molecule `O=S(=O)(NCC1CCCCC1c1ccccc1)c1ccc(OC(F)(F)F)cc1` (stereo not drawn) [Compound 49, N-((2-phenylcyclohexyl)methyl)-4-(trifluoromethoxy)benzenesulfonamide], the GI50 was 39 µM. With `O=S(=O)(NCCC(O)(C(F)(F)F)C(F)(F)F)c1ccc(OC(F)(F)F)cc1` [Compound 50, N-(4,4,4-trifluoro-3-hydroxy-3-(trifluoromethyl)butyl)-4-(trifluoromethoxy)benzenesulfonamide], the GI50 was 71 µM. To `O=S(=O)(NCCC(c1ccccc1)C(F)(F)F)c1ccc(OC(F)(F)F)cc1` (stereo not drawn) [Compound 51, N-(4,4,4-trifluoro-3-phenylbutyl)-4-(trifluoromethoxy)benzenesulfonamide] belongs 55 µM; to `CCC(C#N)Oc1cccc(CNS(=O)(=O)c2ccc(OC(F)(F)F)cc2)c1` (stereo not drawn) [Compound 52, N-(3-(1-cyanopropoxy)benzyl)-4-(trifluoromethoxy)benzenesulfonamide], 72 µM; to `COCCC1(CNS(=O)(=O)c2ccc(OC(F)(F)F)cc2)CCCCC1` [Compound 53, N-((1-(2-methoxyethyl)cyclohexyl)methyl)-4-(trifluoromethoxy)benzenesulfonamide], 66 µM.

Regarding `CCCCN(CCNS(=O)(=O)c1ccc(OC(F)(F)F)cc1)Cc1cccc(Cl)c1` [Compound 54, N-(2-(butyl(3-chlorobenzyl)amino)ethyl)-4-(trifluoromethoxy)benzenesulfonamide], it took 33 µM to inhibit growth by half (GI50). For `CC(C)CCOc1ccccc1CCNS(=O)(=O)c1ccc(OC(F)(F)F)cc1` [Compound 55, N-(2-(isopentyloxy)phenethyl)-4-(trifluoromethoxy)benzenesulfonamide] the value was 57 µM; for `O=S(=O)(NCC1(c2c(Cl)cccc2Cl)CCC1)c1ccc(OC(F)(F)F)cc1` [Compound 56, N-((1-(2,6-dichlorophenyl)cyclobutyl)methyl)-4-(trifluoromethoxy)benzenesulfonamide], 30 µM.

Turning to `O=S(=O)(NCC1(c2cccc(C(F)(F)F)c2)CCC1)c1ccc(OC(F)(F)F)cc1` [Compound 57, 4-(trifluoromethoxy)-N-((1-(3-(trifluoromethyl)phenyl)cyclobutyl)methyl)benzenesulfonamide], it took 38 µM to inhibit growth by half (GI50). In the case of `CC(C)N(C)c1ccccc1CNS(=O)(=O)c1ccc(OC(F)(F)F)cc1` [Compound 58, N-(2-(isopropyl(methyl)amino)benzyl)-4-(trifluoromethoxy)benzenesulfonamide], the 50% growth inhibitory concentration (GI50) came to 20 µM. `O=S(=O)(NCc1ccccc1COC1CCCCC1)c1ccc(OC(F)(F)F)cc1` [Compound 59, N-(2-((cyclohexyloxy)methyl)benzyl)-4-(trifluoromethoxy)benzenesulfonamide] yielded a GI50 of 23 µM. To `Cc1ccc(C2(CNS(=O)(=O)c3ccc(OC(F)(F)F)cc3)CC2)c(C)c1` [Compound 60, N-((1-(2,4-dimethylphenyl)cyclopropyl)methyl)-4-(trifluoromethoxy)benzenesulfonamide] belongs 44 µM; to `O=S(=O)(NCC1(c2cccs2)CCCC1)c1ccc(OC(F)(F)F)cc1` [Compound 61, N-((1-(thiophen-2-yl)cyclopentyl)methyl)-4-(trifluoromethoxy)benzenesulfonamide], 38 µM; to `O=S(=O)(NCc1cc(Cl)ccc1OC(F)F)c1ccc(OC(F)(F)F)cc1` [Compound 62, N-(5-chloro-2-(difluoromethoxy)benzyl)-4-(trifluoromethoxy)benzenesulfonamide], 70 µM.

Regarding `CC(C)CN(CCNS(=O)(=O)c1ccc(OC(F)(F)F)cc1)CC(C)C` [Compound 63, N-(2-(diisobutylamino)ethyl)-4-(trifluoromethoxy)benzenesulfonamide], the 50% growth inhibitory concentration (GI50) is 60 µM.

For the molecule `CCCCN(CCCNS(=O)(=O)c1ccc(OC(F)(F)F)cc1)Cc1ccccc1` [Compound 64, N-(3-(benzyl(butyl)amino)propyl)-4-(trifluoromethoxy)benzenesulfonamide], the GI50 worked out at 36 µM. The molecule `CC(C)(C)OC(=O)N1CC(F)(F)CC1CNS(=O)(=O)c1ccc(OC(F)(F)F)cc1` (stereo not drawn) [Compound 65, Tert-butyl 4,4-difluoro-2-(((4-(trifluoromethoxy)phenyl)sulfonamido)methyl)pyrrolidine-1-carboxylate] yielded a GI50 of 43 µM. In turn, `CC[C@H](NS(=O)(=O)c1ccc(OC(F)(F)F)cc1)c1cc(F)ccc1F` [Compound 66, (S)—N-(1-(2,5-difluorophenyl)propyl)-4-(trifluoromethoxy)benzenesulfonamide] showed a GI50 of 35 µM. Turning to `CC(Cc1c(Cl)cccc1Cl)NS(=O)(=O)c1ccc(OC(F)(F)F)cc1` (stereo not drawn) [Compound 67, N-(1-(2,6-dichlorophenyl)propan-2-yl)-4-(trifluoromethoxy)benzenesulfonamide], halving of growth (GI50) required 50 µM. For `CCOC(=O)CC(NS(=O)(=O)c1ccc(OC(F)(F)F)cc1)c1ccc(OC(C)C)c(OC)c1` (stereo not drawn) [Compound 68, Ethyl 3-(4-isopropoxy-3-methoxyphenyl)-3-((4-(trifluoromethoxy)phenyl)sulfonamido)propanoate] the value was 72 µM. The molecule `O=S(=O)(NC(c1cc(Cl)cc(Cl)c1)C1CCCCC1)c1ccc(OC(F)(F)F)cc1` (stereo not drawn) [Compound 69, N-(cyclohexyl(3,5-dichlorophenyl)methyl)-4-(trifluoromethoxy)benzenesulfonamide] displayed a 50% growth inhibitory concentration (GI50) of 9 µM. Molecule `CC(NS(=O)(=O)c1ccc(OC(F)(F)F)cc1)C1(c2ccc(Br)cc2)CC1` (stereo not drawn) [Compound 70, N-(1-(1-(4-bromophenyl)cyclopropyl)ethyl)-4-(trifluoromethoxy)benzenesulfonamide] gave a 50% growth inhibitory concentration (GI50) of 25 µM. To `C=CCCC(NS(=O)(=O)c1ccc(OC(F)(F)F)cc1)c1ccc(C(F)(F)F)cc1` (stereo not drawn) [Compound 71, 4-(trifluoromethoxy)-N-(1-(4-(trifluoromethyl)phenyl)pent-4-en-1-yl)benzenesulfonamide] belongs 20 µM; to `O=S(=O)(NC(CC1CC1)c1cc(F)cc(Br)c1)c1ccc(OC(F)(F)F)cc1` (stereo not drawn) [Compound 72, N-(1-(3-bromo-5-fluorophenyl)-2-cyclopropylethyl)-4-(trifluoromethoxy)benzenesulfonamide], 17 µM. For `CCC[C@@H](NS(=O)(=O)c1ccc(OC(F)(F)F)cc1)c1ccc2c(c1)OCO2` [Compound 73, (R)—N-(1-(benzo[d][1,3]dioxol-5-yl)butyl)-4-(trifluoromethoxy)benzenesulfonamide] the value was 38 µM; for `Cc1ccc(CNS(=O)(=O)c2ccc(OC(F)(F)F)cc2)c(OCC(C)C)c1` [Compound 74, N-(2-isobutoxy-4-methylbenzyl)-4-(trifluoromethoxy)benzenesulfonamide], 60 µM; for `Cc1ccc(CNS(=O)(=O)c2ccc(OC(F)(F)F)cc2)c(OCC2CC2)c1` [Compound 75, N-(2-(cyclopropylmethoxy)-4-methylbenzyl)-4-(trifluoromethoxy)benzenesulfonamide], 30 µM. Regarding `CCOc1ccccc1CNS(=O)(=O)c1ccc(OC(F)(F)F)cc1` [Compound 76, N-(2-ethoxybenzyl)-4-(trifluoromethoxy)benzenesulfonamide], the GI50 was found to be 60 µM. To `CC(C)(C)OC(=O)N1CC(CNS(=O)(=O)c2ccc(OC(F)(F)F)cc2)OC(C)(C)C1` (stereo not drawn) [Compound 77, Tert-butyl 2,2-dimethyl-6-(((4-(trifluoromethoxy)phenyl)sulfonamido)methyl)morpholine-4-carboxylate] belongs 20 µM.
